From patent publication US10555923B2, “Method for treating paroxysmal nocturnal hemoglobinuria” (ENZYCHEM LIFESCIENCES CORPORATION, priority 2015, dated 2020)

Assays:
C3 [1] = experiment: In vitro inhibition of C3 expression in HMC-1 cells (IL-4/TNF-α induced, RT-PCR); assay type: cell-based, human; details: IL-4 (5 ng) and TNF-α (10 ng), PLAG 0.1 and 1 μg/mL
Procedure: A blood cell line, HMC-1 (human mast cell, American Type Culture Collection, ATCC, Rockville, Md.) is incubated and maintained at 37° C. under 5% CO2 humid conditions. The medium is IMDM (Life Technologies, Karlsruhe, Germany) containing 10% Fetal Calf Serum (FCS, HyClone, Logan, Utah), 2 mM […], 100 μg/ml penicillin, 100 μg/ml streptomycin (Life Technologies). The cultured HMC-1 cells (1×10^6 cell/ml) are pretreated with 0.1 and 1 μg/mL concentrations of PLAG, followed by treatment with IL-4 (5 ng) and/or TNF-α (10 ng) to induce cellular activities.
The expressed C3 and its mRNA level changes are observed by using RT-PCR (Reverse Transcriptase Polymerase Chain Reaction). The RT-PCR is carried out as follows: the total RNA is separated by the standard protocol and cDNA is synthesized using AccuScript High Fidelity 1st Strand cDNA Synthesis Kit (Stratagene). Two-step RT-PCR reaction is conducted using Oligo-dT primer and reverse transcriptase, pair of primers and Taq polymerase (Takara, Shiga, Japan). […] The product of PCR is separated using 1.5% agarose gel, dyed with ethidium bromide (EtBr), and visualized with Gel Doc 2000 UV trans-illuminator (Bio-Rad Laboratories, Hercules, Calif., USA), and the experimental data is analyzed using Quantity One software (Bio-Rad Laboratories).

C3 [2] = experiment: C3 mRNA expression in HepG2 cell line (RT-PCR); assay type: cell-based, human
Procedure: A liver cell line, HepG2 (American Type Culture Collection, ATCC, Rockville, Md.), is incubated and maintained at 37° C., 5% CO2 humid atmosphere in DMEM medium. When HepG2 cells, which are known to produce complement in culture, are treated with PLAG, the activity of complement is reduced effectively, as confirmed by RT-PCR of mRNA. In the RT-PCR, 5×10^5 HepG2 cells/ml are distributed into 12 well plates and induced C3 for 12 hours with 10% FCS. Then PLAG is added and further cultured for 2 hours. Cells are harvested and mRNA is isolated and RT-PCR is carried out with specific primers for C3; GAPDH is used as an internal control.

STAT6 [3] = target: T1, STAT6 (Homo sapiens, UniProt P42226); experiment: Dephosphorylation of STAT6 in IL-4 stimulated cell lysates (Western blot); assay type: cell-based; details: U937, Jurkat and A549 cells; PLAG 0.01 to 10 μg/ml; 10 ng/ml IL-4; 15 min after stimulation
T1 construct: using anti-phosphorylated STAT6 in U937, A549, and Jurkat cell lysates treated with PLAG; endogenous in cells; host or cells: U937, A549, Jurkat
T1 sequence (P42226 1-847): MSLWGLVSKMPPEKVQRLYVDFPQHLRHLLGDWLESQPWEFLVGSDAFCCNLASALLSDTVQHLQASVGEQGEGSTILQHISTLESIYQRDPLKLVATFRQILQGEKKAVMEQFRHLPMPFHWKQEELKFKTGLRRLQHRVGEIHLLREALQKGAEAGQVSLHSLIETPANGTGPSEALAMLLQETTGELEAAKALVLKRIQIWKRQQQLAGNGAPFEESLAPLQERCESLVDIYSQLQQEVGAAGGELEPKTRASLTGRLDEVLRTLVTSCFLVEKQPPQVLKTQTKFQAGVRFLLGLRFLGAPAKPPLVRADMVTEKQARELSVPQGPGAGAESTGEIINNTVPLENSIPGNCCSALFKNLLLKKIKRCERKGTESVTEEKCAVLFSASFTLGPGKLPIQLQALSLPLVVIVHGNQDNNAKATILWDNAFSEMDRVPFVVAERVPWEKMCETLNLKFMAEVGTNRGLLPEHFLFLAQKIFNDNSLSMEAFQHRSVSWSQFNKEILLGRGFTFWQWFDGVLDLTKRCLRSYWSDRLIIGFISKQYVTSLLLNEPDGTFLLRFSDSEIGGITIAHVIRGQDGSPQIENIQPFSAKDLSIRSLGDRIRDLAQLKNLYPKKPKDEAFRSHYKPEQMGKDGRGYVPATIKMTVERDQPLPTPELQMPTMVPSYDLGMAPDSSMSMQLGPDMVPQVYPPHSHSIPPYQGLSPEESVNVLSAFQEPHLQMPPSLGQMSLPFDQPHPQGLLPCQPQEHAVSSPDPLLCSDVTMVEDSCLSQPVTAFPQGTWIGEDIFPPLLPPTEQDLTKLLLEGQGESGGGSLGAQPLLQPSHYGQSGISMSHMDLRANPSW
Procedure: Dephosphorylation of STAT6 is examined using anti-phosphorylated STAT6 in U937, A549, and Jurkat cell lysates treated with PLAG at a concentration from 0.01 to 10 μg/ml. Phosphorylation of STAT6 is induced by treatment with 10 ng/ml of IL-4. Dephosphorylation of STAT1 is examined in the U937 cell lysate treated with PLAG (0.01 to 10 μg/ml). Phosphorylation of STAT1 is induced by 10 ng of IFN-γ treatment. Dephosphorylation of STAT1 and STAT6 is examined at 15 min after stimulation with IFN-γ and IL-4 respectively, in the PLAG pretreated cells. […] The transcriptional activity of STAT6 is decreased by the dephosphorylation of STAT6. […] No effect of PLAG on STAT1 phosphorylation is observed.

STAT6 [4] = experiment: Reporter (luciferase) assay for STAT6 transcriptional activity in HepG2 cells; assay type: cell-based, human; details: 10 ng IL-4, PLAG 0.01-10 μg/ml, 12 hour incubation
Procedure: (§1) By using STAT6 inhibitor (S6I), it is confirmed that the reduction of complement 3 in HepG2 cells (human hepatocyte cell line) is regulated by STAT6. […] It is also confirmed that PLAG has selective efficacy on STAT6 over STAT1. FIG. 1 presents graphs showing STAT1 and STAT6 transcriptional activity in the PLAG treated HepG2 cells. NC refers to the unstimulated control cell. For the STAT1 assay, gene transfected HepG2 (human hepatocyte cell line) is treated with 10 ng of IFN-γ and serially diluted PLAG is added (0.01 μg/ml, 0.1 μg/ml, 1 μg/ml, and 10 μg/ml as shown) to see its effect on gene expression in the stimulated cell. For the STAT6 assay, gene transfected HepG2 cells are treated with 10 ng of IL-4 and again serially diluted PLAG is added (0.01 μg/ml, 0.1 μg/ml, 1 μg/ml, and 10 μg/ml as shown) to see its effect on gene expression in the stimulated cell. The assay is carried out following a 12 hour incubation of treated cells.

STAT1 = experiment: Reporter assay for STAT1 transcriptional activity in HepG2 cells; assay type: cell-based, human; details: 10 ng IFN-γ, PLAG 0.01-10 μg/ml, 12 hour incubation
Procedure: as §1

C3 [5] = experiment: C3 inhibition in HMC-1 cells (ELISA); assay type: cell-based, human; details: PLAG 1, 10 and 100 μg/mL for 2 hours, activated 72 hours with 10% FBS
Procedure: In a separate experiment, human mast cells (HMC-1, 1×10^5 cell/ml) are treated with PLAG of various concentrations (1, 10 and 100 μg/mL) for 2 hours. The cells are activated for 72 hours with 10% FBS (Fetal bovine serum) containing IMDM. The decrease of C3 is confirmed by ELISA analysis of the expressed protein.

C3 [6] = experiment: C3 in culture supernatant of HepG2 cells (ELISA); assay type: cell-based, human; details: PLAG 1 to 100 μg/ml or S6I 10 and 100 μg/ml, IL-4 and TNF-α 1 hr, incubated 18 hr
Procedure: (§2) The incubated HepG2 cell lines are treated with PLAG (1˜100 μg/ml), followed by IL-4 and TNF-α, reacted for 1 hour, incubated for 18 hours at 37° C. and the supernatant is isolated. Quantitation of the amount of C3 in the cellular culture medium (supernatant) from HepG2 cells is performed by ELISA using a commercially available monoclonal antibody (mAb, R&D Systems) and the manufacture's protocol; the results are presented in FIGS. 3A-3C. C3 is expressed spontaneously under in vitro culture conditions using 10% FCS added to HepG2 cells and incubated for 12 hr. The cells are treated with PLAG from 1 to 100 μg/ml (FIG. 3A, FIG. 3B) or 10 and 100 μg/ml of S6I (FIG. 3C), reacted with IL-4 and TNF-α for 1 hr and then incubated for 18 hr at 37° C. Cellular viability is confirmed using the WST-1 assay (FIG. 3A).

HepG2 cells = experiment: WST-1 cell viability assay in HepG2 cells; assay type: cell-based; details: PLAG 1 to 100 μg/ml
Procedure: as §2

[7] = Colony forming units (CFUs) in spleen assay in heavily irradiated mice; assay type: in vivo; details: 50 mg/kg/d i.p. or p.o.
Procedure: In order to determine the in vivo effect of PLAG on the recovery of hematopoiesis, a CFUs assay is performed in heavily irradiated mice.

complement 3 = experiment: Complement 3 activation by chemotherapeutic agents in mouse model; assay type: in vivo; details: mice; PLAG 50 mg/kg daily 3 weeks with Gemcitabine, Cyclosphosphamide or Tamoxifen
Procedure: The effect of PLAG for treatment of chemotherapy-induced thrombocytopenia (CIT) is evaluated in an animal model. Anti-cancer agents (Gemcitabine 50 mg/kg, Cyclosphosphamide 100 mg/kg, or Tamoxifen 50 mg/kg) are dosed daily for 3 weeks; PLAG is also administered at 50 mg/kg daily for 3 weeks.
It is believed that the leukopenia and thrombocytopenia of these agents and other chemotherapeutic agents may be due at least in part to a specific complement-mediated toxicity. This is seen in FIG. 5.

[8] = test system: hematopoietic stem cells and megakaryocytes; details: reported in WO 99/26640; cited from earlier work

| SMILES | expression of C3 (C3 [1]) | inhibition of C3 expression (mRNA, RT-PCR) (C3 [2]; S6I 10 and 100 μg/ml, compared with PLAG 1 and 10 μg/ml) | IL-4 treatment induced STAT6 phosphorylation (STAT6 [3]) | STAT6 transcriptional activity (expression) (STAT6 [4]) | STAT1 transcriptional activity (expression) (STAT1) | decrease of C3 (ELISA of expressed protein) (C3 [5]) | inhibition of C3 expression (mRNA, RT-PCR) (C3 [2]; PLAG 1 μg/ml, 2 hours) | inhibition of C3 expression (mRNA, RT-PCR) (C3 [2]; PLAG 10 μg/ml, 2 hours) | expression of C3 (amount in supernatant, ELISA) (C3 [6]) | cellular propagation and death (WST-1 viability) (HepG2 cells) | number of splenic nodules, primitive progenitor cells and megakaryocytes [7] | blockage of chemotherapy-induced complement 3 activation (complement 3) | growth-stimulating activities of hematopoietic stem cells and megakaryocytes [8] |
| --- | --- | --- | --- | --- | --- | --- | --- | --- | --- | --- | --- | --- | --- |
| NC(=O)c1cnc(NCCc2ccc(O)c(Cl)c2)nc1NCc1ccccc1 [S6I, reference compound] | suppresses expression of C3 | comparable | – | – | – | – | – | – | – | – | – | – | – |
| CCCCC/C=C\C/C=C\CCCCCCCC(=O)OC(COC(C)=O)COC(=O)CCCCCCCCCCCCCCC (racemic) [PLAG, 1-palmitoyl-2-linoleoyl-3-acetylglycerol] | suppressed by PLAG on a concentration dependent basis | – | inhibited with increasing PLAG concentrations | significant, dose-dependent effect | no effect | proportional to the concentration of PLAG | somewhat | entirely | decreased dose-dependently | does not affect the cellular propagation and death | marked increase | largely blocked | have growth-stimulating activities |
